Measured values taken from patent US20250144187A1, “COMBINATION OF HYDROLASES AND ANTI-MICROORGANISM DRUGS AND USES THEREOF” (CENTRE FOR EYE AND VISION RESEARCH LIMITED, priority 2023, published 2025).
Where two headings read alike, the source gives them in different places.

How the values were obtained:
MRSE [1] = experiment: High-throughput screening of 4989 compounds with human lysozyme; type: cell-based, Staphylococcus epidermis; conditions: for MRSE Inhibition ratio (%): compound 2.5 μM + 1 mg/ml lysozyme relative to compound only
MRSA [2] = experiment: Antibiotics accumulation analysis (LC-MS/MS); type: cell-based, Staphylococcus aureus
Protocol: 11) Antibiotics accumulation analysis. The accumulation of antibiotics in MRSA was determined by LC-MS/MS analysis according to a previous report [Liu, Y et al., Adv. Sci. 7. 1902227 (2020); Ong, V et al., Drug Metab. Dispos, 4127 (2014); Richter, M. F et al., Nature 545, 299-304 (2017)]. Briefly, 1.0 ml of overnight culture of MRSA was diluted into […] of fresh LB medium and cultured at 37° C. with shaking at 250 rpm until when bacteria OD600 was about 0.4. Then, tedizolid phosphate (0.5 μg/ml) in combination with varying lysozyme (0, 0.25, 0.5 and 1.0 mg/ml) was added. After that, all samples were further cultured at 37° C. with shaking at 250 rpm for 0.5, 1.0, 2.0 or 4 hours, respectively. Then, all bacteria were pelleted by centrifuging at 13 000 g for 20 minutes. To lyse the bacteria, each pellet was dissolved in 400 μl of lysis buffer (150 mM NaCl, 1% Triton-X100, 1× proteinase inhibitor and 50 mM HEPES-Na, pH 8.0) and then subjected to sonication lysis, followed by three freeze-thaw cycles in liquid nitrogen. The lysates were pelleted at 13 000 g for 20 minutes and the supernatants were collected. All debris were re-suspended in 400 μl of methanol and pelleted as before, followed by 400 μl of acetonitrile treatment as before. These supernatants were combined with the previously collected supernatants, Residual debris was removed by centrifuging at 13 000 g for 20 minutes. Supernatants were analyzed by an Agilent 1260 Infinity HPLC system coupled to AD SCIEX QTRAP 6500 mass spectrometers (ABSciex, CA, USA). The liquid chromatography separation was performed on water HSS T3 column (2.1×100 mm, 3 μm) with mobile phase A (20 mM ammonium formate in water) and mobile phase B (methanol). The flow rate was […]. […] The quantification determination of antibiotic uptake was performed by multiple reaction monitoring (MRM) with negative electrospray ionization using the m/z 451 transition for tedizolid phosphate [Ong, V et al., Drug Metab. […]

MRSE [3] = experiment: Mutation frequency and prevention concentration analysis, tedizolid phosphate/lysozyme
MRSA [4] = experiment: Nascent protein synthesis analysis (OPP probe); type: cell-based; conditions: Staphylococcus aureus, 1 h, read-out: minimal dosage of tedizolid phosphate for synthesis inhibition of half of the nascent protein
Protocol: 12) Nascent protein synthesis analysis. According to the previously reported method [Forester, C. M et al., Proc. Nat. […] Specifically, mid-log-phase MRSA with OD600 of 0.4 to 0.6 was treated with lysozyme, tedizolid phosphate or their combination at different concentrations at 37° C. for 1 hour. These bacteria served as related negative control groups. Positive control groups had similar protocols but with addition of 20 μM OPP. After 1 hour incubation, all bacteria were collected washed by cold PBS for 3 times and fixed by 3.7% formaldehyde in PBS, followed by re-suspension in lysis buffer containing 0.5% Triton® X-100. Then, these fixed and permeabilized cells were incubated with Click-iT™ plus OPP reaction cocktail according to the standard protocol [Forester, C. M et al., Proc. Nat. Acad. U.S.A. 115, 2353-2358 (2018)]. After 30 minutes incubation in the prevention of light at room temperature, the reaction cocktail was removed. Next, these fixed cells in 96-well plate were washed by using 200 μl/well of Click-iT® reaction rinse buffer, followed by further incubation with 1×HCS nuclear Mask™ blue stain working solution. After 30 minutes incubation in the prevention of light at room temperature, the nuclear Mask™ blue stain working solution was removed. […] Inhibition degrees of nascent proteins synthesis were expressed with fluorescence ratio (Alexa Fluor®/nuclear Mask™) as average±SD. […]

Compound | MRSE Combination (MRSE [1]; OD600 at 24-hour, compound 2.5 μM + 1 mg/ml lysozyme) | MRSE Drug only (MRSE [1]; OD600 at 24-hour, compound 2.5 μM without lysozyme) | MRSE Inhibition ratio (%) (MRSE [1]) | MRSE Inhibition ratio (%) (MRSE [1]; listed as Ce ? dinir) | increase in the level of intracellular tedizolid phosphate (MRSA [2]; after 4 hours, lysozyme (≤0.25 mg/ml) used in combination) [fold] | intracellular accumulation of tedizolid phosphate (MRSA [2]; combination therapy, 1 hour) | tedizolid phosphate alone needed to achieve the same intracellular accumulation (MRSA [2]; tedizolid phosphate alone, 1 hour) [µg/mL] | mutation frequencies (MRSE [3]; combination with lysozyme) | prevention concentrations of tedizolid phosphate (MRSE [3]; combination with lysozyme) [µg/mL] | mutation frequencies (MRSE [3]; without combination therapy) | prevention concentrations of tedizolid phosphate (MRSE [3]; without lysozyme) [µg/mL] | IC50 (MRSA [4]; combination with 0.5 mg/ml lysozyme) [µg/mL] | IC50 (MRSA [4]; monotherapy) [µg/mL]
C=CC1=C(C(=O)O)N2C(=O)[C@@H](NC(=O)/C(=N\O)c3csc(N)n3)[C@H]2SC1 [cefdinir, Cefdinir] | 0.0528 | 0.6206 | above 90% | 99.68 | – | – | – | – | – | – | – | – | –
Cn1nnc(-c2ccc(-c3ccc(N4C[C@H](COP(=O)(O)O)OC4=O)cc3F)cn2)n1 [tedizolid phosphate, Tedizolid Phosphate] | – | – | – | – | 10 | ca. 100 μg/l | ≥ 4.5 | 2×10^−9 | ≤ 1 | ≥ 5×10^−7 | > 50 | 0.32 | 9.5
